Calls of active or inactive are those of the source. No cut-off for these calls is given here.
Tested on: Mus musculus
Experiment: Reduction of neovascular tufts in retina of rhodopsin/VEGF transgenic mouse at 3 to 10 mg/kg, sc bid administered for 7 days started on post natal day 14 measured on post natal day 21 by FITC-conjugated GSA-lectin staining-based fluorescence microscopy
Format: functional, organism-based

COC(=O)N[C@@H](Cc1ccccc1)C(=O)N[C@@H](Cc1ccc(NS(=O)(=O)O)cc1)c1csc(-c2csc(-c3cccs3)n2)n1
Activity: Active
